Laboratory results: patent US20180243190A1, “ACTIVATORS OF NRF2-DEPENDENT PHOTOPROTECTION AND RELATED USES THEREOF” (THE ARIZONA BOARD OF REGENTS ON BEHALF OF THE UNIVERSITY OF …, priority 2015, published 2018)

Assays:
HaCaT keratinocytes [1] = test: GSH-Glo glutathione assay; assay type: cell-based, human; conditions: bixin 0-40 μM, 24 h
Protocol: Total intracellular glutathione in cultured cells was analyzed using the luminescent GSH-Glo glutathione assay (Promega). Cells were harvested and then counted using a Z2 Coulter counter, and GSH was determined per 10,000 viable cells. Data represent relative levels of glutathione normalized for cell number (treated versus solvent controls).

[2] = parameters: species or system SKH-1 mice; conditions: mouse, in vivo, 200 mg/kg
From the text: To explore the potential systemic photoprotective activity of bixin in a murine skin sunburn model, the feasibility of upregulating cutaneous NRF2 activity by systemic administration was first examined. It has been reported earlier that efficient cutaneous accumulation of dietary carotenoids requires prolonged nutritional supplementation over weeks and that pharmacokinetic parameters of cutaneous delivery of dietary carotinoids differ between humans and mice. Therefore, in order to circumvent the more complex pharmacokinetics associated with dietary supplementation, an intraperitoneal (i.p.) route for bixin systemic administration followed by examination of cutaneous NRF2 status was chosen. After i.p. injection of bixin (200 mg/kg) performed in Nrf2^+/+ and Nrf2^−/− mice, plasma was collected at 0, 1, 2, 4, 8, 16, 24, 48 and 72 h after injection followed by HPLC-photodiode array detection (FIG. 4A-C). […] Next, efficacy of various bixin treatment regimens (differing with regard to total dose and time after injection) for maximum activation of the NRF2 pathway in murine skin was determined (FIG. 4D).
Electrospray mass spectrometry of bixin [dissolved in tetrahydrofuran and diluted tenfold in acetonitrile/NH4OH (0.1 N); ESI-MS (negative ion mode) m/z 393.21 (M−1)^−] was performed using a Bruker Apex FT/ICR mass spectrometer. […]

SKH-1 mice skin = test: Solar UV photodamage model; assay type: in vivo
Protocol: Next, the feasibility of bixin-induced cutaneous protection was studied in a solar UV photodamage model. Nrf2^+/+ and Nrf2^−/− mice were i.p. injected with either corn oil (carrier control) or bixin (200 mg/kg) 48 h before solar UV exposure (240 mJ/cm^2 UVB; 4.4 J/cm^2 UVA). 24 h after UV exposure back skin tissue was then collected followed by immunohistochemical (IHC) analysis. […] Moreover, UV exposure alone activated the NRF2 response in murine skin, effects not detectable in Nrf2^−/− mice (FIG. 5).
Irradiation with solar UV occurred as described before. A KW large area light source solar simulator, model 91293, from Oriel Corporation (Stratford, Conn.) was used, equipped with a 1000 W Xenon arc lamp power supply, model 68920, and a VIS-IR bandpass blocking filter combined with an atmospheric attenuation filter (output 290-400 nm plus residual 650-800 nm). At 345 mm from the source, the UV dose was 4.4 J/cm^2 UVA+240 mJ/cm^2 UVB radiation.
Nrf2^+/+ and Nrf2^−/− SKH-I mice were obtained by breeding Nrf2 heterozygous mice generated by back-crossing Nrf2^−/− C57BL/6 mice onto the SKH-1 hairless mouse genetic background for at least six generations (JAX® Mice, The Jackson Laboratory). All animals received water and food ad libitum and were handled according to the Guide for the Care and Use of Laboratory Animals; the protocols were approved by the University of Arizona Institutional Animal Care and Use Committee. Eight-week-old Nrf2^+/+ and Nrf2^−/− mice were randomly allocated into four groups (n=6): (i) control (corn oil); (ii) bixin (200 mg/kg, dissolved in corn oil); (iii) UV; (iv) bixin+UV. Bixin was administered through intraperitoneal (i.p.) injection 48 h before UV exposure.
24 h after UV exposure, the mice were euthanized and back skin was collected and divided into two parts: one part was frozen in liquid nitrogen for total RNA extraction and protein analysis; the other part was fixed in 10% buffered formalin and embedded in paraffin for histological and immunohistochemical analyses. Tissue sections (4 μm) were baked and deparaffinized. Hematoxylin and eosin (H&E) staining was performed for pathological examination. Antigen retrieval was carried out by boiling the slides with retrieval solution (citric acid monohydrate 2.1 g/L in H2O pH=6.0) three times for 5 min [43]. Tissue sections were then exposed to 3.5 M HCl for 15 min at room temperature and washed with PBS. Subsequently, tissue sections were treated with 0.3% […] to quench endogenous peroxidase activity. Tissue sections were incubated with 5% normal goat serum for 30 min followed by 2 h incubation with primary antibodies at 1:100 dilution at room temperature. Staining was performed using the EnVision+System-HRP (DAB) kit (Dako) according to the manufacturer's instructions.
An in situ cell death detection kit (Roche) was used for detection of apoptotic cell death in skin sections according to the manufacturer's instructions. Briefly, tissue sections were pretreated with proteinase K (20 μg/ml) in 10 mM Tris/HCl (pH 7.8) at 37° C. for 30 min. After washing three times with PBS, tissue sections were incubated with TUNEL reaction mixture for 1 h at 37° C. in the dark. Tissue sections were then stained with Hoechst, and analyzed using a fluorescence microscope (Zeiss Observer.Zi microscope; slidebook computer program; excitation wavelength: 450-500 nm; detection wavelength: 515-565 nm). Hoechst stain was visualized under UV light.

HaCaT keratinocytes [3] = tested on: HaCaT keratinocytes
Protocol: Photodynamic induction of intracellular oxidative stress and its suppression by bixin pretreatment was analyzed by flow cytometry using 2′,7′-dichlorodihydrofluorescein diacetate (DCFH-DA) as a sensitive non-fluorescent precursor dye according to a published standard procedure [14]. HaCaT keratinocytes were pretreated with bixin (1 or 24 h) and then exposed to singlet oxygen generated by dye-sensitization as described earlier [14, 44]. In brief, toluidine blue 0 (TB) photosensitization was achieved using a ‘Sylvania 15 W Cool White’ light tube delivering visible light at an irradiance of 4.29 mW/cm^2. The irradiance in the visible region (400-700 nm) was determined using a spectroradiometer, Model 754 from Optronic Laboratories (Orlando, Fla.). Cells received visible radiation at a distance of 50 mm from the source through the polystyrene lids of cell culture dishes. For ^1O2 exposure, cells were washed with PBS and immediately exposed to the combined action of visible light (0.3 J/cm^2) and TB (3.3 μM) in PBS. Following 5 min incubation in the dark after irradiation, cells were washed with PBS. Cells were then incubated for 60 min in the dark (37° C., 5% CO2) with culture medium containing DCFH-DA (5 μg/mL final concentration). Cells were then washed with PBS, harvested by trypsinization, resuspended in 300 μl PBS, and analyzed by flow cytometry.

[4] = 200 mg/kg i.p. 48 h before solar UV, effect confined to Nrf2+/+ mice

COC(=O)/C=C/C(C)=C\C=C\C(C)=C\C=C\C=C(C)\C=C\C=C(C)\C=C\C(=O)O [bixin]
increase of total cellular glutathione (HaCaT keratinocytes [1]): ~50% | AUC, Nrf2+/+ versus Nrf2−/− [2]: did not differ significantly | peak plasma concentration (Cmax) ([2]; ip): up to 11.3 μg/ml | UV-induced apoptosis (TUNEL-positive cells) (SKH-1 mice skin; [4]): suppressed | UV-induced epidermal thickening (SKH-1 mice skin; [4]): suppressed | cyclobutane pyrimidine dimer (CPD)-lesions (SKH-1 mice skin; Nrf2+/+ and Nrf2−/− mice, 200 mg/kg i.p.): not antagonized | UV-induced epidermal expression of MMP9 (IHC) (SKH-1 mice skin; Nrf2+/+ mice only, 200 mg/kg i.p.): significantly antagonized | UV-elicited keratinocyte hyperproliferation (Ki67 IHC) (SKH-1 mice skin; Nrf2+/+ mice, 200 mg/kg i.p.): suppression | UV-enhanced 8-oxo-dG staining (IHC) (SKH-1 mice skin; Nrf2+/+ mice, 200 mg/kg i.p.): suppressed | UV-induced p-p65 accumulation in the skin (SKH-1 mice skin; Nrf2+/+ mice, 200 mg/kg i.p.): decreased | UV-enhanced 8-oxo-dG staining (IHC) (SKH-1 mice skin; Nrf2−/− mice, 200 mg/kg i.p.): not Nrf2^−/− mice | UV-induced p-p65 accumulation in the skin (SKH-1 mice skin; Nrf2−/− mice, 200 mg/kg i.p.): minimal effects | UV-induced NF-κB target gene expression (IL6, TNFα, MMP9) at the mRNA level (SKH-1 mice skin; observed only in Nrf2+/+ mice, 200 mg/kg i.p.): attenuation | DCF fluorescence after compound only (no dye sensitization) (HaCaT keratinocytes [3]): did not cause an increase | protection against 1O2-induced oxidative stress (HaCaT keratinocytes [3]; HaCaT, 20 μM, 1 h preincubation): without protective effects | suppression of 1O2-induced increase in DCF fluorescence (HaCaT keratinocytes [3]; HaCaT, 20 μM, 24 h preincubation): efficiently suppressed
